Reference: patent EP4168403B1 (priority 2020, dated 2021)

Key:
[1] = target: Tau(306-336) peptide (Homo sapiens, UniProt P10636); details: Tau(306-336) 50 µM, inhibitor 50 µM (1:1 ratio); mean ± SEM
Method: Subsequently, the sample was aliquoted dried and stored at -20 °C.
Fluorescence data were recorded every 10 min overnight with 1 min shaking at 800 rpm prior to each reading. Each inhibitor was assayed in triplicates in at least two independent experiments. […] Inhibition % are expressed as the mean ± SEM. […] Values were averaged and the presented values are expressed as the mean ± SEM.
Fluorescence data were recorded every 10 min overnight with 1 min shaking at 800 rpm prior to each reading.

[2] = tested on: mice; experiment: Object Recognition task (ORT), scopolamine-induced memory impairment; format: in vivo; details: 1 mg/kg intraperitoneally with scopolamine 0.5 mg/kg
Method: For behavioural studies, 50 swiss female 10-week-old weighing 25-30 g were used. Memory impairment was induced by the potent antimuscarinic drug scopolamine hydrobromide (0.5 mg/kg, Sigma) dissolved in saline buffer. To explore the potential of BIGI-3h as a cognitive enhancer, the compound was administered at a dose of 1 mg/kg and 10 mg/kg. For comparison, the antiamnesic effect of donepezil was tested (Tocris Bioscience, R&D Systems Inc.) at a dose of 1 mg/kg. Both products, 3h and donepezil, were dissolved in saline buffer containing 3.6% dimethyl sulfoxide. All drug solutions were independently prepared immediately before their use and were administered intraperitoneally in 10 mL/kg of vehicle volume. Different batches of mice were used for each experiment. The animals were distributed into 5 experimental groups (I-V): control groups (I) mice administered 3.6% DMSO in saline buffer, labelled as "control vehicle"; experimental groups (II-V) consisted of (II) mice administered scopolamine dissolved in 3.6% DMSO in saline buffer, labelled as "scop/DMSO," (III) mice co-administered scopolamine plus Donepezil, labelled as "Scopo/donep," (IV) and (V) mice co-administrated scopolamine plus BIGI-3h at 1mg/Kg and 10mg/Kg labelled respectively "Scopo/3h 1" "Scopo/3h 10".
Spontaneous object recognition was tested as described previously, 28 with slight modifications. All behavioural experiments took place during the light phase of the 12-h light/ dark cycle between 10 am and 3 pm to minimize the influence of circadian rhythm, and they were conducted with the investigators blind to treatments. […] The total time spent in active exploration of each object during T1 and T2 was determined with a computerized tracking system and image analyzer (Ethovision XT, Noldus Information Technology) that tracked the nose, centre and tail points of each mouse^45. As a criterion of active object exploration, it was measured the time spent by the animal directing its nose to the object at a distance of less than 2 cm and/or touching it with the vibrissae or nose. […]

Tau(306-336) peptide, sequence (P10636 623-653 limits assumed): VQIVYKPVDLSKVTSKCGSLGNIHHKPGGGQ

Row | SMILES | Inhibition of T (306-336) peptide self - aggregation (%) [1] | recognition index / discrimination index (Figure 5) [2]
1 | Nc1c2c(nc3ccccc13)CCCC2 [tacrine, reference compound] | not able to significantly interfere | 
2 | COc1cc2c(cc1OC)C(=O)C(CC1CCN(Cc3ccccc3)CC1)C2 (centres unmarked) [donepezil, reference compound] |  | reversed the short-term memory impairment induced by scopolamine
